Common to all, as to test: ≥ marks a high value that may be exact or a test limit, other limits are often not marked, values filed in µg/mL are converted to µM
Assay [1] deals with Staphylococcus epidermidis.
For assay [2], the system named is Pseudomonas aeruginosa H103.
The subject of assay [3] is Staphylococcus aureus ATCC 25923.
Assay [4] relates to Enterococcus faecalis ATCC 29212.
Assay [5] concerns Escherichia coli UB1005.
The subject of assay [6] is Salmonella enterica serovar Typhimurium.
The test system of assay [7] is Candida albicans.
Assay [8] relates to Staphylococcus aureus C623.
Assay [9] concerns Candida albicans C627.
Assay [10] deals with Pseudomonas aeruginosa 213.
Assay [11] has as its system Pseudomonas aeruginosa LES400.
Assay [12] concerns Escherichia coli ESBL 63103.
Assay [13] has as its system Enterococcus faecium mic80.
Assay [14] has as its system Clavibacter michiganensis subsp. michiganensis DSM 46294.
Assay [15] deals with Pseudomonas syringae pv. syringae DSM 10604.
In assay [16] the test system is Pectobacterium carotovorum subsp. carotovorum DSM 30168.
Assay [17] relates to Xanthomonas vesicatoria DSM 50861.
Assay [18] relates to Pseudomonas syringae pv. tomato DC3000.
Assay [19] relates to Pseudomonas corrugata DSM 7228.
In assay [20] the test system is Streptococcus mutans UA159.
In assay [21] the test system is Streptococcus sanguinis ATCC 49295.
The test system of assay [22] is Streptococcus gordonii ATCC 10558.
Assay [23] deals with Streptococcus mutans GS-5.

In brackets after ≈: the same amount, converted by molar mass. Some results are limits rather than exact numbers.

One may read the MIC as the lowest concentration that inhibits growth of the organism. Low values mean greater potency, high ones weaker potency. Regarding `CC[C@H](C)[C@H](N)C(=O)N[C@@H](CCCN=C(N)N)C(=O)N[C@@H](CCSC)C(=O)N[C@@H](CCCN=C(N)N)C(=O)N[C@H](C(=O)N[C@@H](CCCN=C(N)N)C(=O)N[C@H](C(=O)N[C@@H](CC(C)C)C(=O)N[C@@H](CC(C)C)C(=O)O)C(C)C)[C@@H](C)CC` [IRMRIRVLL], the MIC stood at 2 µM (≈ 2.34 µg/mL) in [1]; 16 µM (≈ 18.7 µg/mL) in [2]; 4 µM (≈ 4.68 µg/mL) in assay [3]; 16 µM (≈ 18.7 µg/mL) in assay [4]; 2 µM (≈ 2.34 µg/mL) in [5]; 4 µM (≈ 4.68 µg/mL) in [6]. The same compound displayed an MIC in assay [7] of 16 µM (≈ 18.7 µg/mL).
Consider `CC[C@H](C)[C@H](NC(=O)[C@H](CC(C)C)NC(=O)[C@H](CCSC)NC(=O)[C@H](CCCN=C(N)N)NC(=O)[C@H](Cc1c[nH]c2ccccc12)NC(=O)[C@H](Cc1c[nH]c2ccccc12)NC(=O)[C@H](CCCCN)NC(=O)[C@H](Cc1ccccc1)NC(=O)[C@@H](N)CCCCN)C(=O)O` [KFKWWRMLI], for which the MIC in [1] was 0.6 µM (≈ 0.785 µg/mL); in assay [2], 4.6 µM (≈ 6.02 µg/mL); in assay [3], 1.2 µM (≈ 1.57 µg/mL); in [4], 2.3 µM (≈ 3.01 µg/mL); in assay [5], 0.6 µM (≈ 0.785 µg/mL); in assay [6], 2.3 µM (≈ 3.01 µg/mL). The compound further displayed an MIC in assay [7] of 4.6 µM (≈ 6.02 µg/mL).
Consider `NCCCC[C@H](NC(=O)[C@@H](N)CCCCN)C(=O)N[C@@H](CCCN=C(N)N)C(=O)N[C@@H](Cc1c[nH]c2ccccc12)C(=O)N[C@@H](Cc1c[nH]c2ccccc12)C(=O)N[C@@H](Cc1c[nH]c2ccccc12)C(=O)N[C@@H](Cc1c[nH]c2ccccc12)C(=O)N[C@@H](Cc1c[nH]c2ccccc12)C(=O)N[C@@H](CCCN=C(N)N)C(=O)O` [KKRWWWWWR], for which the MIC in [2] was 2.64 µM (≈ 4 µg/mL); in [8] it was 1.32 µM (≈ 2 µg/mL); in assay [9], 2.64 µM (≈ 4 µg/mL); in assay [3], 2.64 µM (≈ 4 µg/mL); in assay [10] it was 21.1 µM (≈ 32 µg/mL); in [11] it was 21.1 µM (≈ 32 µg/mL). The MIC in assay [12] and in [13] was 5.27 µM (≈ 8 µg/mL) in each case.
Turning to `NCCCC[C@H](NC(=O)[C@H](Cc1c[nH]c2ccccc12)NC(=O)[C@@H](N)CCCCN)C(=O)N[C@@H](CCCN=C(N)N)C(=O)N[C@@H](Cc1c[nH]c2ccccc12)C(=O)N[C@@H](Cc1c[nH]c2ccccc12)C(=O)N[C@@H](Cc1c[nH]c2ccccc12)C(=O)N[C@@H](Cc1ccccc1)C(=O)N[C@@H](CCCN=C(N)N)C(=O)O` [KWKRWWWFR], the MIC was 21.6 µM (≈ 32 µg/mL) in [2]; 10.8 µM (≈ 16 µg/mL) in assay [8]; 21.6 µM (≈ 32 µg/mL) in assay [9]; 21.6 µM (≈ 32 µg/mL) in assay [3]; at least 86.6 µM in assay [10]; at least 43.3 µM in assay [11]. Also, the figures for the MIC in [12] and in assay [13] were 10.8 µM (≈ 16 µg/mL) and 21.6 µM (≈ 32 µg/mL), respectively.
Turning to `CC(C)C[C@H](NC(=O)[C@H](C)NC(=O)[C@H](CCCCN)NC(=O)[C@H](CCCCN)NC(=O)[C@H](C)NC(=O)[C@H](Cc1ccccc1)NC(=O)[C@H](CCCN=C(N)N)NC(=O)[C@@H](N)CC(C)C)C(=O)N[C@@H](CCCCN)C(=O)N[C@@H](CCCCN)C(=O)N[C@@H](CC(C)C)C(=O)N[C@@H](Cc1ccccc1)C(N)=O` [LRFAKKALKKLF], the MIC turned out to be 1.71 µM (≈ 2.5 µg/mL) in assay [14]; 0.171 µM (≈ 0.25 µg/mL) in assay [15]; 6.84 µM (≈ 9.99 µg/mL) in [16]; 1.71 µM (≈ 2.5 µg/mL) in assay [17]; 0.171 µM (≈ 0.25 µg/mL) in assay [18]; 0.684 µM (≈ 0.999 µg/mL) in assay [19].
With `CC(C)C[C@H](NC(=O)[C@H](CCCN=C(N)N)NC(=O)[C@H](Cc1ccccc1)NC(=O)[C@H](Cc1ccccc1)NC(=O)[C@@H](NC(=O)[C@H](CO)NC(=O)[C@@H](N)CC(C)C)[C@@H](C)O)C(=O)N[C@@H](Cc1ccccc1)C(=O)N[C@@H](CC(N)=O)C(=O)N[C@@H](CCCN=C(N)N)C(=O)N[C@@H](CO)C(=O)N[C@@H](Cc1ccccc1)C(=O)N[C@H](C(=O)N[C@@H](CCC(N)=O)C(=O)O)[C@@H](C)O` [LSTFFRLFNRSFTQ], the MIC in assay [20], in assay [21], in assay [22] and in [23] was at least 145 µM each time.
In the case of `CC[C@H](C)[C@H](NC(=O)[C@@H](N)CCCN=C(N)N)C(=O)N[C@@H](Cc1c[nH]c2ccccc12)C(=O)N[C@@H](CCCCN)C(=O)N[C@@H](CCCN=C(N)N)C(=O)N[C@@H](Cc1c[nH]c2ccccc12)C(=O)N[C@@H](Cc1c[nH]c2ccccc12)C(=O)N[C@@H](Cc1ccccc1)C(=O)N[C@@H](CCCN=C(N)N)C(=O)O` [RIWKRWWFR], the MIC is at least 89.3 µM in assay [2]; 22.3 µM (≈ 32 µg/mL) in assay [8]; at least 89.3 µM in [9]; 44.6 µM (≈ 64 µg/mL) in assay [3]; at least 89.3 µM in assay [10]; at least 89.3 µM in assay [11]. Further, the MIC in assay [12] and in assay [13] was at least 44.6 µM each time.
For the compound `CC[C@H](C)[C@H](NC(=O)[C@H](CC(C)C)NC(=O)[C@H](CCCN=C(N)N)NC(=O)[C@H](CCCCN)NC(=O)[C@@H](NC(=O)[C@H](CC(C)C)NC(=O)[C@H](CCCCN)NC(=O)[C@H](CCCCN)NC(=O)[C@H](CCCN=C(N)N)NC(=O)[C@H](CCCCN)NC(=O)[C@H](CCCCN)NC(=O)[C@@H](N)CCCN=C(N)N)[C@@H](C)CC)C(N)=O` [RKKRKKLIKRLI], the MIC turned out to be 3.16 µM (≈ 5 µg/mL) in assay [14]; 0.0633 µM (≈ 0.1 µg/mL) in assay [15]; 6.33 µM (≈ 9.99 µg/mL) in [16]; 3.16 µM (≈ 5 µg/mL) in [17]; 6.33 µM (≈ 9.99 µg/mL) in assay [18]; 0.316 µM (≈ 0.5 µg/mL) in assay [19].
`CC(C)C[C@H](NC(=O)[C@H](CCCN=C(N)N)NC(=O)[C@H](Cc1ccccc1)NC(=O)[C@H](Cc1ccccc1)NC(=O)[C@@H](NC(=O)[C@@H](N)CO)[C@@H](C)O)C(=O)N[C@@H](Cc1ccccc1)C(=O)N[C@@H](CC(N)=O)C(=O)N[C@@H](CCCN=C(N)N)C(=O)N[C@@H](CO)C(=O)N[C@@H](Cc1ccccc1)C(=O)N[C@H](C(=O)N[C@@H](CCC(N)=O)C(=O)NCC(=O)N[C@@H](CCCN=C(N)N)C(=O)N[C@@H](CCCN=C(N)N)C(=O)N[C@@H](CCCN=C(N)N)C(=O)N[C@@H](CCCN=C(N)N)C(=O)N[C@@H](CO)C(=O)N[C@H](C(=O)N[C@@H](CCC(N)=O)C(=O)N[C@@H](Cc1c[nH]c2ccccc12)C(=O)N[C@@H](CS)C(=O)N[C@@H](C)C(=O)O)C(C)C)[C@@H](C)O` [STFFRLFNRSFTQGRRRRSVQWCA]: the MIC in assay [20] was 3.55 µM (≈ 10.7 µg/mL); in assay [21] it was at least 33.1 µM; in assay [22], 16.6 µM (≈ 49.8 µg/mL); in assay [23] it was 4.43 µM (≈ 13.3 µg/mL).
As to `CC(C)C[C@H](NC(=O)[C@H](CCCN=C(N)N)NC(=O)[C@H](Cc1ccccc1)NC(=O)[C@H](Cc1ccccc1)NC(=O)[C@@H](NC(=O)[C@@H](N)CO)[C@@H](C)O)C(=O)N[C@@H](Cc1ccccc1)C(=O)N[C@@H](CC(N)=O)C(=O)N[C@@H](CCCN=C(N)N)C(=O)N[C@@H](CO)C(=O)N[C@@H](Cc1ccccc1)C(=O)N[C@H](C(=O)N[C@@H](CCC(N)=O)C(=O)O)[C@@H](C)O` [STFFRLFNRSFTQ], the MIC in assay [20], in assay [21], in assay [22] and in assay [23] was at least 155 µM each time.
Take `CC(C)C[C@H](NC(=O)[C@H](CCCN=C(N)N)NC(=O)[C@H](Cc1ccccc1)NC(=O)[C@H](Cc1ccccc1)NC(=O)[C@@H](N)[C@@H](C)O)C(=O)N[C@@H](Cc1ccccc1)C(=O)N[C@@H](CC(N)=O)C(=O)N[C@@H](CCCN=C(N)N)C(=O)NCC(=O)N[C@@H](CCCN=C(N)N)C(=O)N[C@@H](CCCN=C(N)N)C(=O)N[C@@H](CCCN=C(N)N)C(=O)N[C@@H](CCCN=C(N)N)C(=O)N[C@@H](CO)C(=O)N[C@H](C(=O)N[C@@H](CCC(N)=O)C(=O)N[C@@H](Cc1c[nH]c2ccccc12)C(=O)N[C@@H](CS)C(=O)N[C@@H](C)C(=O)O)C(C)C` [TFFRLFNRGRRRRSVQWCA]: the MIC in assay [20] was 4.34 µM (≈ 10.7 µg/mL); in [21] it was at least 40.5 µM; in assay [22], 20.3 µM (≈ 49.8 µg/mL); in assay [23] it was 5.06 µM (≈ 12.4 µg/mL).
